Data taken from PMC3744326 (Synapse (New York, N.Y.), 2013).

Biological target: T1, serotonin 5-HT1A receptor (Rattus norvegicus, UniProt P19327)
T1 sequence (P19327 1-422): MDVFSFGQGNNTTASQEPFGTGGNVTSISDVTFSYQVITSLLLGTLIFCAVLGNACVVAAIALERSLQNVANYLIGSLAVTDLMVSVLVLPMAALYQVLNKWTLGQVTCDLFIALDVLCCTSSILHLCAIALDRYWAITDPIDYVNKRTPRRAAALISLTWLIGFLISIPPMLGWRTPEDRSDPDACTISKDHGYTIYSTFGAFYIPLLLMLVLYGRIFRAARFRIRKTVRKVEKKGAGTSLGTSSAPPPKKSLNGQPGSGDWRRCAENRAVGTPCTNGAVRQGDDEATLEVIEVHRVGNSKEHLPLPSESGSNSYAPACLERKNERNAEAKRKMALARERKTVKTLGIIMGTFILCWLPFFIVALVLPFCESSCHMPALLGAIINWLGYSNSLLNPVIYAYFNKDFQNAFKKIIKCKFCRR
Assay: [3H]WAY-100635 radioligand displacement in rat brain homogenates
Format: binding

Ki: 0.84 nM
Compound: COc1ccccc1N1CCN(CCN(c2ccccn2)C(=O)[C@H]2CC[C@H](CF)CC2)CC1 [trans-mefway, N-{2-[4-(2'-methoxyphenyl)piperazinyl]ethyl}-N-(2-pyridyl)-N-(cis/trans-4'-[^18F]fluoromethylcyclohexane)-carboxamide]
